The values that follow come from patent US7888464B2, “Hepatitis C virus inhibitors” (Bristol-Myers Squibb Company, priority 2006, dated 2011).

Test [1] deals with T1, HCV NS3/4A protease complex, BMS strain (genotype 1a) (UniProt P27958, species not given/STRAIN_BMS).
T1 construct: "DNA encoding the recombinant HCV NS3/4A protease complex (amino acids 1027 to 1711) for these strains" (said of H77 and J4L6S, not expressly of BMS); given for the H77/J4L6S constructs only
Put plainly: FRET peptide assay to monitor HCV NS3/4A proteolytic activity (BMS strain). In kind it is biochemical. Conditions: NS3/4A BMS strain, read-out: HCV Protease (IC50). The source says: HCV NS3 protease complexes, derived from the BMS strain, H77 strain or J4L6S strain, were generated, as described below. These purified recombinant proteins were generated for use in a homogeneous assay (see below) to provide an indication of how effective compounds of the present disclosure would be in inhibiting HCV NS3 proteolytic activity.
Serum from an HCV-infected patient was obtained from Dr. T. Wright, San Francisco Hospital. An engineered full-length cDNA (compliment deoxyribonucleic acid) template of the HCV genome (BMS strain) was constructed from DNA fragments obtained by reverse transcription-PCR(RT-PCR) of serum RNA (ribonucleic acid) and using primers selected on the basis of homology between other genotype la strains. From the determination of the entire genome sequence, a genotype la was assigned to the HCV isolate according to the classification of Simmonds et al. (See P Simmonds, K A Rose, S Graham, S W Chan, F McOmish, B C Dow, E A Follett, P L Yap and H Marsden, J. Clin. Microbiol., 31(6), 1493-1503 (1993)). […] The infectious clones, H77 (1a genotype) and J4L6S (1b genotype) were obtained from R. Purcell (NIH) and the sequences are published in Genbank (AAB67036, see Yanagi, M., Purcell, R. H., Emerson, S. U. and Bukh, J. Proc. Natl. Acad. Sci. U.S.A. 94(16), 8738-8743 (1997); AF054247, see Yanagi, M., St Claire, M., Shapiro, M., Emerson, S. U., Purcell, R. H. and Bukh, J, Virology 244 (1), 161-172. (1998)).
The H77 and J4L6S strains were used for production of recombinant NS3/4A protease complexes. DNA encoding the recombinant HCV NS3/4A protease complex (amino acids 1027 to 1711) for these strains were manipulated as described by P. Gallinari et al. (see Gallinari P, Paolini C, Brennan D, Nardi C, Steinkuhler C, De Francesco R. Biochemistry. 38(17):5620-32, (1999)). Briefly, a three-lysine solubilizing tail was added at the 3′-end of the NS4A coding region. The cysteine in the P1 position of the NS4A-NS4B cleavage site (amino acid 1711) was changed to a glycine to avoid the proteolytic cleavage of the lysine tag. Furthermore, a cysteine to serine mutation was introduced by PCR at amino acid position 1454 to prevent the autolytic cleavage in the NS3 helicase domain. The variant DNA fragment was cloned in the pET21b bacterial expression vector (Novagen) and the NS3/4A complex was expressed in Escherichia. coli strain BL21 (DE3) (Invitrogen) following the protocol described by P. Gallinari et al. (see Gallinari P, Brennan D, Nardi C, Brunetti M, Tomei L, Steinkuhler C, De Francesco R., J. Virol. 72(8):6758-69 (1998)) with modifications. Briefly, the NS3/4A protease complex expression was induced with 0.5 millimolar (mM) Isopropyl β-D-1-thiogalactopyranoside (IPTG) for 22 hours (h) at 20° C. A typical fermentation (1 Liter (L)) yielded approximately 10 grams (g) of wet cell paste. The cells were resuspended in lysis buffer (10 mL/g) consisting of 25 mM N-(2-Hydroxyethyl)piperazine-N′-(2-Ethane Sulfonic acid) (HEPES), pH 7.5, 20% glycerol, 500 mM Sodium Chloride (NaCl), 0.5% Triton X-100, 1 microgram/milliliter (“μg/mL”) lysozyme, 5 mM Magnesium Chloride (MgCl2), 1 μg/ml DnaseI, 5 mM β-Mercaptoethanol (βME), Protease inhibitor-Ethylenediamine Tetraacetic acid (EDTA) free (Roche), homogenized and incubated for 20 minutes (min) at 4° C. The homogenate was sonicated and clarified by ultra-centrifugation at 235000 g for 1 hour (h) at 4° C. Imidazole was added to the supernatant to a final concentration of 15 mM and the pH adjusted to 8.0. The crude protein extract was loaded on a Nickel-Nitrilotriacetic acid (Ni-NTA) column pre-equilibrated with buffer B (25 mM HEPES, pH 8.0, 20% glycerol, 500 mM NaCl, 0.5% Triton X-100, 15 mM imidazole, 5 mM βME). The sample was loaded at a flow rate of 1 mL/min. The column was washed with 15 column volumes of buffer C (same as buffer B except with 0.2% Triton X-100). The protein was eluted with 5 column volumes of buffer D (same as buffer C except with 200 mM Imidazole). […]

The test system of test [2] is HCV replicon (strain 1b) in HUH-7 cells. Put plainly: HCV replicon FRET assay. The format is cell-based. The note with it: Hepatitis C virus. An excerpt: An HCV replicon whole cell system was established as described by Lohmann V, Korner F, Koch J, Herian U, Theilmann L, Bartenschlager R., Science 285(5424): 110-3 (1999). This system enabled us to evaluate the effects of our HCV Protease compounds on HCV RNA replication. Briefly, using the HCV strain 1b sequence described in the Lohmann paper (Assession number: AJ238799), an HCV cDNA was synthesized by Operon Technologies, Inc. (Alameda, Calif.), and the full-length replicon was then assembled in plasmid pGem9zf(+) (Promega, Madison, Wis.) using standard molecular biology techniques. The replicon consists of (i) the HCV 5′ UTR fused to the first 12 amino acids of the capsid protein, (ii) the neomycin phosphotransferase gene (neo), (iii) the IRES from encephalomyocarditis virus (EMCV), and (iv) HCV NS3 to NS5B genes and the HCV 3′ UTR. Plasmid DNAs were linearized with ScaI and RNA transcripts were synthesized in vitro using the T7 MegaScript transcription kit (Ambion, Austin, Tex.) according to manufacturer's directions. In vitro transcripts of the cDNA were transfected into the human hepatoma cell line, HUH-7. […] Resulting cell lines were characterized for positive and negative strand RNA production and protein production over time.
The HCV replicon FRET assay was developed to monitor the inhibitory effects of compounds described in the disclosure on HCV viral replication. HUH-7 cells, constitutively expressing the HCV replicon, were grown in Dulbecco's Modified Eagle Media (DMEM) (Gibco-BRL) containing 10% Fetal calf serum (FCS) (Sigma) and 1 mg/ml G418 (Gibco-BRL). Cells were seeded the night before (1.5×10^4 cells/well) in 96-well tissue-culture sterile plates. Compound and no compound controls were prepared in DMEM containing 4% FCS, 1:100 Penicillin/Streptomysin (Gibco-BRL), 1:100 L-glutamine and 5% DMSO in the dilution plate (0.5% DMSO final concentration in the assay). Compound/DMSO mixes were added to the cells and incubated for 4 days at 37° C. After 4 days, cells were first assessed for cytotoxicity using alamar Blue (Trek Diagnotstic Systems) for a CC50 reading. The toxicity of compound (CC50) was determined by adding 1/10th volume of alamar Blue to the media incubating the cells. After 4 h, the fluorescence signal from each well was read, with an excitation wavelength at 530 nm and an emission wavelength of 580 nm, using the Cytofluor Series 4000 (Perspective Biosystems). Plates were then rinsed thoroughly with Phosphate-Buffered Saline (PBS) (3 times 150 μl). The cells were lysed with 25 μl of a lysis assay reagent containing an HCV protease substrate (5× cell Luciferase cell culture lysis reagent (Promega #E153A) diluted to 1× with distilled water, NaCl added to 150 mM final, the FRET peptide substrate (as described for the enzyme assay above) diluted to 10 μM final from a 2 mM stock in 100% DMSO. The plate was then placed into the Cytofluor 4000 instrument which had been set to 340 nm excitation/490 nm emission, automatic mode for 21 cycles and the plate read in a kinetic mode. EC50 determinations were carried out as described for the IC50 determinations.
For orientation: A replicon is a self-replicating genome or part of one, used to study replication in cells.

Where [3] appears, read: activity range symbols of Table 2.
The mark [4] stands for this setting: Huh-7, read-out: HCV Pro Replicon (EC50).

The structures appear in SMILES notation. Read-outs that look alike come from different tables or passages of the source.

T1 sequence (P27958 1027-1657, stated change not applied, one chain of several): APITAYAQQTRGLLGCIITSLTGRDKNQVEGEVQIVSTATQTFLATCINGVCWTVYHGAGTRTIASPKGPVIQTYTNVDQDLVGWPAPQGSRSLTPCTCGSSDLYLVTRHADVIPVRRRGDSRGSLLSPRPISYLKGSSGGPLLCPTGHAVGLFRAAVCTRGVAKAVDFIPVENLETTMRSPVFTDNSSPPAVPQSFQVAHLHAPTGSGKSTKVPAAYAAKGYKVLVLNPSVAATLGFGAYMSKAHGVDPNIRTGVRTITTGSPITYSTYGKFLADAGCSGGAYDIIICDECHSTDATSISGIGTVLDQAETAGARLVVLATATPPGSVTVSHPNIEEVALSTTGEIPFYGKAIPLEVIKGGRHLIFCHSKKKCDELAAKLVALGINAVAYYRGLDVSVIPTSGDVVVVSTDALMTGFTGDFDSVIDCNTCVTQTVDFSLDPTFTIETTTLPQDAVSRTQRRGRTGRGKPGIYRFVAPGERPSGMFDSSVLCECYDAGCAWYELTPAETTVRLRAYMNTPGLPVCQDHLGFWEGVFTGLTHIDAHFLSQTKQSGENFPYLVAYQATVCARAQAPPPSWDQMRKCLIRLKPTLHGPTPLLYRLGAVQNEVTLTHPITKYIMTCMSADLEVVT

A word on the IC50: it is the concentration that gives 50% inhibition. As usually defined, the EC50 is the concentration that produces a half-maximal response. Turning to `C=C[C@@H]1C[C@]1(NC(=O)[C@@H]1C[C@@](OC)(c2ccc(-c3ccccc3)cc2)CN1C(=O)[C@@H](NC(=O)OC(C)(C)C)C(C)(C)C)C(=O)NS(=O)(=O)C1CC1` [Cmpd 106, tert-butyl (S)-1-((2S,4R)-4-(biphenyl-4-yl)-2-((1R,2S)-1-(cyclopropylsulfonylcarbamoyl)-2-vinylcyclopropylcarbamoyl)-4-methoxypyrrolidin-1-yl)-3,3-dimethyl-1-oxobutan-2-ylcarbamate], the IC50 in test [1] (numeric cells of Table 2) was 1 nM. Also, the EC50 in test [2] (Huh-7, HCV replicon, numeric cells of Table 2, read-out: HCV Pro Replicon (EC50)) worked out at 11 nM.

Turning to `C=CCCCCC[C@H](NC(=O)OC(C)(C)C)C(=O)N1C[C@](OC)(c2ccc(-c3ccccc3)cc2)C[C@H]1C(=O)N[C@]1(C(=O)NS(=O)(=O)C2CC2)C[C@H]1C=C` [Cmpd 107], in test [1] (setting [3]), the half-maximal inhibitory concentration (IC50) was 50 to 500 nM. Moreover, in test [2] (setting [4]), the EC50 was above 500 nM.

For the compound `C=C[C@@H]1C[C@]1(NC(=O)[C@@H]1C[C@@](OCc2ccccc2)(c2ccc(-c3ccccc3)cc2)CN1C(=O)[C@@H](NC(=O)OC(C)(C)C)C(C)(C)C)C(=O)NS(=O)(=O)C1CC1` [Cmpd 108], in test [1] (setting [3]), the IC50 was 1 to 50 nM. In addition, the concentration for a half-maximal effect (EC50) in test [2] (setting [4]) lay within 1 to 50 nM.

On to `COC1(c2ccc(-c3ccccc3)cc2)CC(C(=O)NC2(C(=O)NS(=O)(=O)C3CC3)CC2C(F)F)N(C(=O)C(NC(=O)OC(C)(C)C)C(C)(C)C)C1` (centres unmarked) [Cmpd 109], for which the half-maximal inhibitory concentration (IC50) in test [1] (setting [3]) lay in the range of 1 to 50 nM. The EC50 in test [2] (setting [4]) fell in the range of 50 to 500 nM.

For the compound `CC[C@@H]1C[C@]1(NC(=O)[C@@H]1C[C@@](OC)(c2ccc(-c3ccccc3)cc2)CN1C(=O)[C@@H](NC(=O)OC(C)(C)C)C(C)(C)C)C(=O)NS(=O)(=O)C1CC1` [Cmpd 110], the IC50 in test [1] (setting [3]) lay within 1 to 50 nM. The EC50 in test [2] (setting [4]) was 50 to 500 nM.

Turning to `C=C[C@@H]1C[C@]1(NC(=O)[C@@H]1C[C@@](OC)(c2ccc(-c3ccccc3)cc2)CN1C(=O)[C@@H](NC(=O)OC(C)(C)C(F)(F)F)C(C)(C)C)C(=O)NS(=O)(=O)C1CC1` [Cmpd 200, {(S)-1-[(2S,4R)-4-Biphenyl-4-yl-2-((S)-(1R,2S)-1-cyclopropanesulfonylaminocarbonyl-2-vinyl-cyclopropylcarbamoyl)-4-methoxy-pyrrolidine-1-carbonyl]-2,2-dimethyl-propyl}-carbamic acid 2,2,2-trifluoro-1,1-dimethyl-ethyl ester], the IC50 in test [1] (setting [3]) lay within 1 to 50 nM. The EC50 in test [2] (setting [4]) was 1 to 50 nM.

`C=C[C@@H]1C[C@]1(NC(=O)[C@@H]1C[C@@](OC)(c2ccc(-c3ccccc3)cc2)CN1C(=O)[C@@H](NC(=O)OC(C)(C)C)C(C)C)C(=O)NS(=O)(=O)C1CC1` [Cmpd 201, {(S)-1-[(2S,4R)-4-Biphenyl-4-yl-2-((S)-(1R,2S)-1-cyclopropanesulfonylaminocarbonyl-2-vinyl-cyclopropylcarbamoyl)-4-methoxy-pyrrolidine-1-carbonyl]-2-methyl-propyl}-carbamic acid tert-butyl ester]: the IC50 in test [1] (setting [3]) is 1 to 50 nM. The EC50 in test [2] (setting [4]) fell in the range of 50 to 500 nM.

As to `C=C[C@@H]1C[C@]1(NC(=O)[C@@H]1C[C@@](OC)(c2ccc(-c3ccccc3)cc2)CN1C(=O)[C@@H](NC(=O)OC(C)(C)C)C(C)CC)C(=O)NS(=O)(=O)C1CC1` (stereo partly drawn) [Cmpd 202, {(S)-1-[(2S,4R)-4-Biphenyl-4-yl-2-((S)-(1R,2S)-1-cyclopropanesulfonylaminocarbonyl-2-vinyl-cyclopropylcarbamoyl)-4-methoxy-pyrrolidine-1-carbonyl]-2-methyl-butyl}-carbamic acid tert-butyl ester], the IC50 in test [1] (setting [3]) lay in the range of 1 to 50 nM. For the same compound, in test [2] (setting [4]), the EC50 was in the range of 50 to 500 nM.

In the case of `C=C[C@@H]1C[C@]1(NC(=O)[C@@H]1C[C@@](OC)(c2ccc(-c3ccccc3)cc2)CN1C(=O)[C@H](Cc1ccc(C(C)(C)C)cc1)NC(=O)OC(C)(C)C)C(=O)NS(=O)(=O)C1CC1` [Cmpd 211], the IC50 in test [1] (numeric cells of Table 2) amounted to 1600 nM.
